Assay results from ChEMBL document CHEMBL1201862, “PubChem BioAssay data set” (2004).
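Compound exposure: 48 hours, 5 concentrations, 96-well plates. Here, GI50 denotes the concentration required for 50% inhibition of growth.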 The source made the active and inactive calls. Rule as the data show it: active = GI50 up to about 1.1 µM and inactive = higher.

Assays:
Assay in all cases: NCI anticancer screen, dose series, 48 h
SW-620 = tested on: SW-620
K562 = tested on: K562
LOX IMVI = tested on: LOX IMVI
TK-10 = tested on: TK-10
SR = tested on: SR
HOP-92 = tested on: HOP-92
UO-31 = tested on: UO-31
XF498 = tested on: XF498
SNB-75 = tested on: SNB-75
SK-MEL-2 = tested on: SK-MEL-2
SF-539 = tested on: SF-539
ACHN = tested on: ACHN
KM12 = tested on: KM12
OVCAR-3 = tested on: OVCAR-3
HT-29 = tested on: HT-29
786-0 = tested on: 786-0
HOP-62 = tested on: HOP-62
DMS-273 = tested on: DMS-273
RPMI-8226 = tested on: RPMI-8226
UACC-257 = tested on: UACC-257
SNB-19 = tested on: SNB-19
DLD-1 = tested on: DLD-1
OVCAR-8 = tested on: OVCAR-8
KM-20L2 = tested on: KM-20L2
NCI-H23 = tested on: NCI-H23
SK-MEL-28 = tested on: SK-MEL-28
HCT-15 = tested on: HCT-15
SF-268 = tested on: SF-268
U-251 = tested on: U-251
MOLT-4 = tested on: MOLT-4
SK-OV-3 = tested on: SK-OV-3
Malme-3M = tested on: Malme-3M
HL-60 = tested on: HL-60
LXFL 529 = tested on: LXFL 529
NCI-H460 = tested on: NCI-H460
OVCAR-5 = tested on: OVCAR-5
SN12C = tested on: SN12C
A549 = tested on: A549
IGROV-1 = tested on: IGROV-1
NCI-H522 = tested on: NCI-H522
UACC-62 = tested on: UACC-62
COLO 205 = tested on: COLO 205
SF-295 = tested on: SF-295
RXF 631 = tested on: RXF 631
M14 = tested on: M14
OVCAR-4 = tested on: OVCAR-4
M19-MEL = tested on: M19-MEL
HCC 2998 = tested on: HCC 2998
CAKI-1 = tested on: CAKI-1
HCT-116 = tested on: HCT-116
NCI-H226 = tested on: NCI-H226
HOP-18 = tested on: HOP-18
SNB-78 = tested on: SNB-78
DMS-114 = tested on: DMS-114
RXF 393 = tested on: RXF 393
CCRF-CEM = tested on: CCRF-CEM
SK-MEL-5 = tested on: SK-MEL-5
EKVX = tested on: EKVX
A498 = tested on: A498

Clc1ccc(OCc2nnc3n2N=C(c2ccccc2)CS3)cc1
GI50 (SW-620): 14.7 µM (inactive)
GI50 (K562): 12.7 µM (inactive)
GI50 (LOX IMVI): 17 µM (inactive)
GI50 (TK-10): 27.3 µM (inactive)
GI50 (SR): 6.5 µM (inactive)
GI50 (HOP-92): 20.9 µM (inactive)
GI50 (UO-31): 5.42 µM (inactive)
GI50 (XF498): 17.1 µM (inactive)
GI50 (SNB-75): 27 µM (inactive)
GI50 (SK-MEL-2): 18 µM (inactive)
GI50 (SF-539): 18.2 µM (inactive)
GI50 (ACHN): 10.9 µM (inactive)
GI50 (KM12): 15.9 µM (inactive)
GI50 (OVCAR-3): 16.9 µM (inactive)
GI50 (HT-29): 16.3 µM (inactive)
GI50 (786-0): 16.2 µM (inactive)
GI50 (HOP-62): 19.1 µM (inactive)
GI50 (DMS-273): 16 µM (inactive)
GI50 (RPMI-8226): 10.8 µM (inactive)
GI50 (UACC-257): 14.9 µM (inactive)
GI50 (SNB-19): 18.7 µM (inactive)
GI50 (DLD-1): 16.5 µM (inactive)
GI50 (OVCAR-8): 14.1 µM (inactive)
GI50 (KM-20L2): 15.2 µM (inactive)
GI50 (NCI-H23): 12.2 µM (inactive)
GI50 (SK-MEL-28): 21.8 µM (inactive)
GI50 (HCT-15): 13.8 µM
GI50 (SF-268): 14.3 µM (inactive)
GI50 (U-251): 17.9 µM (inactive)
GI50 (MOLT-4): 9.68 µM (inactive)
GI50 (SK-OV-3): 20.7 µM (inactive)
GI50 (Malme-3M): 17.9 µM (inactive)
GI50 (HL-60): 13 µM (inactive)
GI50 (LXFL 529): 13.6 µM (inactive)
GI50 (NCI-H460): 16.8 µM (inactive)
GI50 (OVCAR-5): 21.3 µM (inactive)
GI50 (SN12C): 11.7 µM (inactive)
GI50 (A549): 16.4 µM (inactive)
GI50 (IGROV-1): 4.47 µM (inactive)
GI50 (NCI-H522): 17.4 µM (inactive)
GI50 (UACC-62): 11.1 µM (inactive)
GI50 (COLO 205): 15.3 µM (inactive)
GI50 (SF-295): 19.3 µM (inactive)
GI50 (RXF 631): 14 µM (inactive)
GI50 (M14): 21.5 µM (inactive)
GI50 (OVCAR-4): 15.6 µM (inactive)
GI50 (M19-MEL): 16.9 µM (inactive)
GI50 (HCC 2998): 16.6 µM (inactive)
GI50 (CAKI-1): 24.9 µM (inactive)
GI50 (HCT-116): 11.2 µM (inactive)
GI50 (NCI-H226): 21.5 µM (inactive)

CN1C(=O)C(=CN(C)c2ccccc2)C(=O)N(C)C1=O
GI50 (SW-620): 80.5 µM (inactive)
GI50 (K562): > 100 µM (inactive)
GI50 (LOX IMVI): > 100 µM (inactive)
GI50 (TK-10): > 100 µM (inactive)
GI50 (SR): 37.2 µM (inactive)
GI50 (HOP-18): 69.8 µM (inactive)
GI50 (UO-31): > 100 µM (inactive)
GI50 (XF498): > 100 µM (inactive)
GI50 (SNB-75): 92.7 µM (inactive)
GI50 (SK-MEL-2): > 100 µM (inactive)
GI50 (SF-539): > 100 µM (inactive)
GI50 (SNB-78): > 100 µM (inactive)
GI50 (ACHN): > 100 µM (inactive)
GI50 (DMS-114): 57.7 µM (inactive)
GI50 (KM12): > 100 µM (inactive)
GI50 (OVCAR-3): 90.4 µM (inactive)
GI50 (RXF 393): 69 µM (inactive)
GI50 (786-0): > 100 µM (inactive)
GI50 (DMS-273): > 100 µM (inactive)
GI50 (RPMI-8226): > 100 µM (inactive)
GI50 (UACC-257): > 100 µM (inactive)
GI50 (SNB-19): > 100 µM (inactive)
GI50 (DLD-1): > 100 µM (inactive)
GI50 (OVCAR-8): > 100 µM (inactive)
GI50 (KM-20L2): > 100 µM (inactive)
GI50 (SK-MEL-28): > 100 µM (inactive)
GI50 (CCRF-CEM): 40.4 µM (inactive)
GI50 (HCT-15): > 100 µM
GI50 (U-251): > 100 µM (inactive)
GI50 (MOLT-4): > 100 µM (inactive)
GI50 (Malme-3M): 36.9 µM (inactive)
GI50 (HL-60): 51.1 µM (inactive)
GI50 (LXFL 529): > 100 µM (inactive)
GI50 (NCI-H460): > 100 µM (inactive)
GI50 (OVCAR-5): > 100 µM (inactive)
GI50 (SN12C): > 100 µM (inactive)
GI50 (A549): > 100 µM (inactive)
GI50 (IGROV-1): 56.5 µM (inactive)
GI50 (UACC-62): 91.6 µM (inactive)
GI50 (SF-295): > 100 µM (inactive)
GI50 (SK-MEL-5): > 100 µM (inactive)
GI50 (M14): 74.5 µM (inactive)
GI50 (OVCAR-4): > 100 µM (inactive)
GI50 (M19-MEL): 49.2 µM (inactive)
GI50 (HCC 2998): > 100 µM (inactive)
GI50 (EKVX): 65.8 µM (inactive)
GI50 (CAKI-1): 30.1 µM (inactive)
GI50 (A498): 95.7 µM (inactive)
GI50 (HCT-116): > 100 µM (inactive)
GI50 (NCI-H226): 63.2 µM (inactive)

Cc1ccc(S(=O)(=O)N/N=C(/c2nc3ccc([N+](=O)[O-])cc3nc2O)C(O)c2ccc(C(O)/C(=N\NS(=O)(=O)c3ccc(C)cc3)c3nc4ccc([N+](=O)[O-])cc4nc3O)cc2)cc1 (stereo not given)
GI50 (SW-620): 42.8 µM (inactive)
GI50 (K562): 13 µM (inactive)
GI50 (LOX IMVI): 20.3 µM (inactive)
GI50 (TK-10): > 100 µM (inactive)
GI50 (HOP-92): 2.55 µM (inactive)
GI50 (UO-31): 38.4 µM (inactive)
GI50 (XF498): > 100 µM (inactive)
GI50 (SNB-75): > 100 µM (inactive)
GI50 (SK-MEL-2): 77.6 µM (inactive)
GI50 (SF-539): 42.9 µM (inactive)
GI50 (SNB-78): > 100 µM (inactive)
GI50 (ACHN): 28.6 µM (inactive)
GI50 (DMS-114): 5.98 µM (inactive)
GI50 (KM12): 19.3 µM (inactive)
GI50 (OVCAR-3): 61.2 µM (inactive)
GI50 (HT-29): 31 µM (inactive)
GI50 (RXF 393): > 100 µM (inactive)
GI50 (786-0): > 100 µM (inactive)
GI50 (HOP-62): 43.1 µM (inactive)
GI50 (DMS-273): 38.4 µM (inactive)
GI50 (RPMI-8226): 26.1 µM (inactive)
GI50 (UACC-257): 14.8 µM (inactive)
GI50 (SNB-19): > 100 µM (inactive)
GI50 (DLD-1): 33.3 µM (inactive)
GI50 (OVCAR-8): 92.3 µM (inactive)
GI50 (KM-20L2): 55.8 µM (inactive)
GI50 (NCI-H23): > 100 µM (inactive)
GI50 (SK-MEL-28): > 100 µM (inactive)
GI50 (CCRF-CEM): 13.6 µM (inactive)
GI50 (U-251): 67.6 µM (inactive)
GI50 (MOLT-4): 28.2 µM (inactive)
GI50 (SK-OV-3): > 100 µM (inactive)
GI50 (Malme-3M): > 100 µM (inactive)
GI50 (HL-60): 7.82 µM (inactive)
GI50 (LXFL 529): 21.4 µM (inactive)
GI50 (NCI-H460): 35.6 µM (inactive)
GI50 (OVCAR-5): > 100 µM (inactive)
GI50 (A549): 49.1 µM (inactive)
GI50 (IGROV-1): > 100 µM (inactive)
GI50 (NCI-H522): 3.15 µM (inactive)
GI50 (UACC-62): 68.4 µM (inactive)
GI50 (COLO 205): 41.4 µM (inactive)
GI50 (RXF 631): 56.5 µM (inactive)
GI50 (SK-MEL-5): 28.1 µM (inactive)
GI50 (M14): 20.8 µM (inactive)
GI50 (HCC 2998): 28 µM (inactive)
GI50 (EKVX): 81.7 µM (inactive)
GI50 (A498): 59 µM (inactive)
GI50 (HCT-116): 54.2 µM (inactive)
